Laboratory results taken from US20240239755A1, “SUBSTITUTED PYRIDAZINONES, SALTS OR N-OXIDES THEREOF AND THEIR USE AS HERBICIDALLY ACTIVE SUBSTANCES” (Bayer Aktiengesellschaft, priority 2021, published 2024).

How the values were obtained:
Type in all cases: in vivo
[1] = system: Kochia scoparia (KCHSC); assay: Herbicidal pre-emergence action, 1280 g/ha (Table A4); settings: visual grading after ca. 3 weeks vs untreated controls
In short: (§1)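 Pre-emergence soil-surface spray, sandy loam, mono-/dicot double sowings per pot; WP or EC formulations, aqueous, +0.5% additive, 600 L/ha water. Greenhouse, optimum conditions. Visual % damage vs untreated at ca. 3 wk (100% = dead).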

[2] = system: Kochia scoparia (KCHSC); assay: Herbicidal pre-emergence action, 320 g/ha (Table C1); settings: visual grading after ca. 3 weeks vs untreated controls
Excerpt: (§2) Seeds of mono- and dicotyledonous weed plants were sown in plastic pots (double sowings with one species of mono- and one species of dicotyledonous weed plants per pot), in sandy loam, and covered with soil. The compounds according to the invention, formulated in the form of wettable powders (WP) or as emulsifiable concentrates (EC), were applied to the surface of the covering soil as an aqueous suspension or as an emulsion, with the addition of 0.5% of an additive, at an application rate of 600 litres of water per hectare (converted). Following treatment, the pots were placed in a greenhouse and kept under optimum growth conditions for the test plants. The visual grading of the damage to the test plants was carried out after ca. 3 weeks in comparison to untreated controls (herbicidal effect in percent (%): 100% effect=plants have died, 0% effect=as control plants). Tables C1 to C6 below, show the effects of selected compounds of the general formula (I) according to Table 1 on various harmful plants using an application rate corresponding to 320 g/ha obtained by the experimental procedure mentioned above.

[3] = system: Kochia scoparia (KCHSC); assay: Herbicidal post-emergence action, 1280 g/ha (Table B4); settings: visual assessment after ca. 3 weeks vs untreated controls
In short: (§3)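 Visual percent damage relative to untreated plants (100% dead, 0% no effect) was rated about 3 weeks after treatment in the greenhouse. WP or EC preparations with 0.5% additive were applied at 600 L water/ha onto single-leaf-stage plants grown 2–3 weeks in sandy loam pots.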

[4] = system: Abutilon theophrasti (ABUTH); assay: Herbicidal pre-emergence action, 1280 g/ha (Table A1); settings: visual grading after ca. 3 weeks vs untreated controls
In short: as §1

[5] = system: Stellaria media (STEME); assay: Herbicidal pre-emergence action, 1280 g/ha (Table A9); settings: visual grading after ca. 3 weeks vs untreated controls
In short: as §1

[6] = system: Kochia scoparia (KCHSC); assay: Herbicidal post-emergence action, 320 g/ha, KCHSC; settings: visual grading after ca. 3 weeks
In short: (§4)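 Post-emergence spray at single-leaf stage; WP/EC in aqueous suspension/emulsion, 0.5% additive, 600 L water/ha. Greenhouse ~3 wk, visual rating vs untreated: 0% = as control, 100% = plants dead.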

[7] = system: Amaranthus retroflexus (AMARE); assay: Herbicidal pre-emergence action, 1280 g/ha (Table A11); settings: visual grading after ca. 3 weeks vs untreated controls
In short: as §1

[8] = system: Lolium rigidum (LOLRI); assay: Herbicidal post-emergence action, 1280 g/ha (Table B5); settings: visual assessment after ca. 3 weeks vs untreated controls
In short: as §3

[9] = system: Lolium rigidum (LOLRI); assay: Herbicidal post-emergence action, 320 g/ha, LOLRI; settings: visual grading after ca. 3 weeks
Excerpt: (§5) Seeds of mono- and dicotyledonous weed plants were sown in plastic pots (double sowings with one species of mono- and one species of dicotyledonous weed plants per pot), in sandy loam, covered with soil and grown under controlled growth conditions. 2 to 3 weeks after sowing, the test plants were sprayed in the single-leaf stage. The compounds according to the invention, formulated in the form of wettable powders (WP) or as emulsifiable concentrates (EC), were sprayed onto the green plant parts as an aqueous suspension or as an emulsion, with the addition of 0.5% of an additive, at an application rate of 600 litres of water per hectare (converted). The test plants were placed in the greenhouse for ca. 3 weeks under optimum growth conditions, and then the effect of the preparations was assessed visually in comparison with untreated controls (herbicidal effect in percent (%): 100% effect=plants have died, 0% effect=as control plants).
Tables D1 to D8 below, show the effects of selected compounds of the general formula (I) according to Table 1 on various harmful plants using an application rate corresponding to 320 g/ha obtained by the experimental procedure mentioned above.

[10] = system: Matricaria inodora (MATIN); assay: Herbicidal pre-emergence action, 1280 g/ha (Table A6); settings: visual grading after ca. 3 weeks vs untreated controls
In short: as §1

[11] = system: Lolium rigidum (LOLRI); assay: Herbicidal pre-emergence action, 1280 g/ha (Table A5); settings: visual grading after ca. 3 weeks vs untreated controls
In short: as §1

[12] = system: Amaranthus retroflexus (AMARE); assay: Herbicidal pre-emergence action, 320 g/ha, AMARE; settings: visual grading after ca. 3 weeks
Excerpt: as §2, with “plants).” for “plants). Tables C1 to C6 below, show the effects of selected compounds of the general formula (I) according to Table 1 on various harmful plants using an application rate corresponding to 320 g/ha obtained by the experimental procedure mentioned above.”
(§6) Tables C1 to C6 below, show the effects of selected compounds of the general formula (I) according to Table 1 on various harmful plants using an application rate corresponding to 320 g/ha obtained by the experimental procedure mentioned above.

[13] = system: Stellaria media (STEME); assay: Herbicidal post-emergence action, 1280 g/ha (Table B9); settings: visual assessment after ca. 3 weeks vs untreated controls
In short: as §3

[14] = system: Stellaria media (STEME); assay: Herbicidal pre-emergence action, 320 g/ha, STEME; settings: visual grading after ca. 3 weeks
In short: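 Percent herbicidal effect, graded by eye about 3 weeks after treatment relative to untreated pots (0% matching controls, 100% dead plants). Application of 320 g/ha onto soil covering freshly sown seeds, as aqueous suspension or emulsion plus 0.5% additive at 600 L/ha; pots kept in greenhouse.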

[15] = system: Poa annua (POAAN); assay: Herbicidal pre-emergence action, 320 g/ha, POAAN; settings: visual grading after ca. 3 weeks
Excerpt: as §2, with “plants).” for “plants). Tables C1 to C6 below, show the effects of selected compounds of the general formula (I) according to Table 1 on various harmful plants using an application rate corresponding to 320 g/ha obtained by the experimental procedure mentioned above.”
as §6

[16] = system: Veronica persica (VERPE); assay: Herbicidal post-emergence action, 1280 g/ha, VERPE; settings: visual grading vs untreated controls
In short: (§7)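 Visual rating ~3 weeks after treatment: 0% equals untreated control, 100% means plants died. Treatment was a 1280 g/ha foliar spray (600 L water/ha, 0.5% additive, WP or EC formulation) applied to single-leaf-stage plants grown 2–3 weeks in sandy loam under controlled conditions.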

[17] = system: Poa annua (POAAN); assay: Herbicidal pre-emergence action, 1280 g/ha (Table A7); settings: visual grading after ca. 3 weeks vs untreated controls
In short: as §1

[18] = system: Setaria viridis (SETVI); assay: Herbicidal pre-emergence action, 1280 g/ha (Table A8); settings: visual grading after ca. 3 weeks vs untreated controls
In short: as §1

[19] = system: Abutilon theophrasti (ABUTH); assay: Herbicidal post-emergence action, 320 g/ha, ABUTH; settings: visual grading after ca. 3 weeks
In short: as §4

[20] = system: Stellaria media (STEME); assay: Herbicidal post-emergence action, 320 g/ha, STEME; settings: visual grading after ca. 3 weeks
In short: as §4

[21] = system: Amaranthus retroflexus (AMARE); assay: Herbicidal post-emergence action, 1280 g/ha, AMARE; settings: visual grading vs untreated controls
In short: as §7

[22] = system: Abutilon theophrasti (ABUTH); assay: Herbicidal post-emergence action, 1280 g/ha (Table B1); settings: visual assessment after ca. 3 weeks vs untreated controls
In short: as §3

[23] = system: Matricaria inodora (MATIN); assay: Herbicidal post-emergence action, 1280 g/ha (Table B6); settings: visual assessment after ca. 3 weeks vs untreated controls
In short: as §3

[24] = system: Veronica persica (VERPE); assay: Herbicidal pre-emergence action, 1280 g/ha (Table A10); settings: visual grading after ca. 3 weeks vs untreated controls
Excerpt: as §2, with “A1” for “C1”, “A11” for “C6”, “and” for “using”, “1280” for “320”

[25] = system: Echinochloa crus-galli (ECHCG); assay: Herbicidal post-emergence action, 1280 g/ha (Table B3); settings: visual assessment after ca. 3 weeks vs untreated controls
Excerpt: as §5, with “plants). Tables B1 to B11 below, show the effects of selected compounds of the general formula (I) according to Table 1 on various harmful plants using an application rate corresponding to 1280 g/ha obtained by the experimental procedure mentioned above.” for “plants).”

[26] = system: Amaranthus retroflexus (AMARE); assay: Herbicidal post-emergence action, 320 g/ha, AMARE; settings: visual grading after ca. 3 weeks
In short: as §4

[27] = system: Matricaria inodora (MATIN); assay: Herbicidal pre-emergence action, 320 g/ha (Table C3); settings: visual grading after ca. 3 weeks vs untreated controls
Excerpt: as §2

[28] = system: Lolium rigidum (LOLRI); assay: Herbicidal pre-emergence action, 320 g/ha (Table C2); settings: visual grading after ca. 3 weeks vs untreated controls
In short: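 Herbicidal effect was graded by eye roughly 3 weeks after treatment, from 0% (as control) to 100% (dead plants). Weed seeds sown in sandy loam were covered and sprayed on the soil surface with WP/EC suspensions or emulsions, 0.5% additive, 600 L water/ha, then kept in a greenhouse.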

[29] = system: Setaria viridis (SETVI); assay: Herbicidal post-emergence action, 1280 g/ha (Table B8); settings: visual assessment after ca. 3 weeks vs untreated controls
In short: as §3

[30] = system: Veronica persica (VERPE); assay: Herbicidal post-emergence action, 320 g/ha, VERPE; settings: visual grading after ca. 3 weeks
In short: as §4

Cc1nn(C)c(=O)c(Oc2ccc(Cl)cc2)c1O [Example I-002]
herbicidal effect KCHSC [1]: 90% | herbicidal effect KCHSC [2]: 90%

CCOC(=O)Oc1c(C)nn(C)c(=O)c1Oc1ccccc1C1CC1 [Example I-012]
herbicidal effect KCHSC [3]: 100% | herbicidal effect ABUTH [4]: 100% | herbicidal effect STEME [5]: 100% | herbicidal effect KCHSC [6]: 100% | herbicidal effect AMARE [7]: 100% | herbicidal effect LOLRI [8]: 100% | herbicidal effect LOLRI [9]: 100% | herbicidal effect MATIN [10]: 90% | herbicidal effect LOLRI [11]: 100% | herbicidal effect AMARE [12]: 100% | herbicidal effect STEME [13]: 100% | herbicidal effect STEME [14]: 90% | herbicidal effect POAAN [15]: 90% | herbicidal effect KCHSC [1]: 100% | herbicidal effect VERPE [16]: 90% | herbicidal effect POAAN [17]: 90% | herbicidal effect SETVI [18]: 100% | herbicidal effect ABUTH [19]: 100% | herbicidal effect STEME [20]: 100% | herbicidal effect AMARE [21]: 90% | herbicidal effect ABUTH [22]: 100% | herbicidal effect MATIN [23]: 100%

CC(=O)Oc1c(C)nn(C)c(=O)c1Oc1ccccc1C(F)(F)F [Example I-030]
herbicidal effect KCHSC [3]: 90% | herbicidal effect VERPE [24]: 90% | herbicidal effect STEME [5]: 100% | herbicidal effect AMARE [7]: 100% | herbicidal effect LOLRI [8]: 90% | herbicidal effect LOLRI [9]: 90% | herbicidal effect MATIN [10]: 100% | herbicidal effect LOLRI [11]: 100% | herbicidal effect ECHCG [25]: 90% | herbicidal effect AMARE [12]: 90% | herbicidal effect AMARE [26]: 90% | herbicidal effect STEME [13]: 100% | herbicidal effect STEME [14]: 100% | herbicidal effect MATIN [27]: 100% | herbicidal effect KCHSC [1]: 90% | herbicidal effect VERPE [16]: 90% | herbicidal effect LOLRI [28]: 90% | herbicidal effect ABUTH [19]: 90% | herbicidal effect STEME [20]: 90% | herbicidal effect SETVI [29]: 90% | herbicidal effect AMARE [21]: 90% | herbicidal effect ABUTH [22]: 100% | herbicidal effect MATIN [23]: 90%

CCOC(=O)Oc1c(C)nn(C)c(=O)c1Oc1cc(Cl)ccc1Cl [Example I-086]
herbicidal effect VERPE [24]: 90% | herbicidal effect STEME [5]: 100% | herbicidal effect AMARE [7]: 90% | herbicidal effect LOLRI [8]: 100% | herbicidal effect LOLRI [9]: 90% | herbicidal effect MATIN [10]: 100% | herbicidal effect LOLRI [11]: 100% | herbicidal effect AMARE [26]: 90% | herbicidal effect STEME [13]: 100% | herbicidal effect LOLRI [28]: 90% | herbicidal effect STEME [20]: 90% | herbicidal effect AMARE [21]: 100% | herbicidal effect ABUTH [22]: 90% | herbicidal effect MATIN [23]: 90%

Cc1nn(C)c(=O)c(Oc2cc(F)c(F)cc2C2CC2)c1OC(=O)C(C)C [Example I-102]
herbicidal effect KCHSC [3]: 100% | herbicidal effect STEME [5]: 100% | herbicidal effect AMARE [7]: 100% | herbicidal effect LOLRI [8]: 90% | herbicidal effect MATIN [10]: 100% | herbicidal effect LOLRI [11]: 90% | herbicidal effect AMARE [26]: 90% | herbicidal effect STEME [13]: 100% | herbicidal effect STEME [14]: 90% | herbicidal effect VERPE [30]: 90% | herbicidal effect KCHSC [1]: 90% | herbicidal effect VERPE [16]: 90% | herbicidal effect STEME [20]: 90% | herbicidal effect KCHSC [2]: 90% | herbicidal effect AMARE [21]: 100% | herbicidal effect ABUTH [22]: 100% | herbicidal effect MATIN [23]: 100%
